Measured values from PubChem BioAssay (NCI).
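Step 1: Grow cells in 96-well plates. Step 2: Expose to compound for 48 hours at 5 concentrations. Step 3: Interpolate endpoints linearly; if unreached, use highest concentration. TGI is the concentration that stops growth completely.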

Tests used:
Test in all cases: NCI tumour cell line growth inhibition, 48 h
[1] = tested on: SR leukemia
[2] = tested on: K-562 leukemia
[3] = tested on: SF-268 CNS
[4] = tested on: 786-0 renal
[5] = tested on: MCF7 breast
[6] = tested on: HCT-116 colon
[7] = tested on: SF-539 CNS
[8] = tested on: OVCAR-8 ovarian
[9] = tested on: NCI-H522 lung
[10] = tested on: RXF 393 renal
[11] = tested on: OVCAR-4 ovarian
[12] = tested on: M14 melanoma
[13] = tested on: KM12 colon
[14] = tested on: NCI/ADR-RES ovarian
[15] = tested on: HCT-15 colon
[16] = tested on: UACC-62 melanoma
[17] = tested on: IGROV1 ovarian
[18] = tested on: MDA-MB-435
[19] = tested on: SK-MEL-2 melanoma
[20] = tested on: MALME-3M melanoma
[21] = tested on: T-47D breast
[22] = tested on: HOP-92 NSCLC
[23] = tested on: SN12C renal
[24] = tested on: HS 578T breast
[25] = tested on: HL-60(TB) leukemia
[26] = tested on: PC-3 prostate
[27] = tested on: SK-MEL-28 melanoma
[28] = tested on: HOP-62 NSCLC
[29] = tested on: MDA-MB-231 breast
[30] = tested on: HT29 colon
[31] = tested on: ACHN renal
[32] = tested on: MDA-N
[33] = tested on: EKVX NSCLC
[34] = tested on: A498 renal
[35] = tested on: CAKI-1 renal
[36] = tested on: SK-MEL-5 melanoma
[37] = tested on: SK-OV-3 ovarian
[38] = tested on: CCRF-CEM leukemia
[39] = tested on: RPMI-8226 leukemia
[40] = tested on: SNB-75 CNS
[41] = tested on: BT-549 breast
[42] = tested on: NCI-H23 lung
[43] = tested on: NCI-H460 lung
[44] = tested on: OVCAR-5 ovarian
[45] = tested on: OVCAR-3 ovarian
[46] = tested on: UACC-257 melanoma
[47] = tested on: COLO 205 colon
[48] = tested on: UO-31 renal
[49] = tested on: A549 NSCLC
[50] = tested on: MOLT-4 leukemia
[51] = tested on: TK-10 renal
[52] = tested on: DU-145 prostate
[53] = tested on: SF-295 CNS
[54] = tested on: U251 CNS
[55] = tested on: SW-620 colon
[56] = tested on: LOX IMVI melanoma
[57] = tested on: NCI-H226 lung
[58] = tested on: SNB-19 CNS

Compound: Nc1ccc2nc3n(c(=O)c2c1)CCCCC3
- TGI [1]: > 100 µM
- TGI [2]: > 100 µM
- TGI [3]: > 100 µM
- TGI [4]: > 100 µM
- TGI [5]: > 100 µM
- TGI [6]: > 100 µM
- TGI [7]: > 100 µM
- TGI [8]: > 100 µM
- TGI [9]: > 100 µM
- TGI [10]: > 100 µM
- TGI [11]: > 100 µM
- TGI [12]: > 100 µM
- TGI [13]: > 100 µM
- TGI [14]: > 100 µM
- TGI [15]: > 100 µM
- TGI [16]: > 100 µM
- TGI [17]: > 100 µM
- TGI [18]: > 100 µM
- TGI [19]: > 100 µM
- TGI [20]: > 100 µM
- TGI [21]: > 100 µM
- TGI [22]: > 100 µM
- TGI [23]: > 100 µM
- TGI [24]: > 100 µM
- TGI [25]: > 100 µM
- TGI [26]: > 100 µM
- TGI [27]: > 100 µM
- TGI [28]: > 100 µM
- TGI [29]: > 100 µM
- TGI [30]: > 100 µM
- TGI [31]: > 100 µM
- TGI [32]: > 100 µM
- TGI [33]: > 100 µM
- TGI [34]: > 100 µM
- TGI [35]: > 100 µM
- TGI [36]: > 100 µM
- TGI [37]: > 100 µM
- TGI [38]: > 100 µM
- TGI [39]: > 100 µM
- TGI [40]: > 100 µM
- TGI [41]: > 100 µM
- TGI [42]: > 100 µM
- TGI [43]: > 100 µM
- TGI [44]: > 100 µM
- TGI [45]: > 100 µM
- TGI [46]: > 100 µM
- TGI [47]: > 100 µM
- TGI [48]: > 100 µM
- TGI [49]: > 100 µM
- TGI [50]: > 100 µM
- TGI [51]: > 100 µM
- TGI [52]: > 100 µM
- TGI [53]: > 100 µM
- TGI [54]: > 100 µM
- TGI [55]: > 100 µM
- TGI [56]: > 100 µM
- TGI [57]: > 100 µM

Compound: CC(=O)N1N=C(c2cc(C)ccc2O)CC1c1cccc(Cl)c1 (configuration not stated)
- TGI [1]: 9.42 µM
- TGI [2]: > 100 µM
- TGI [3]: 50.5 µM
- TGI [4]: > 100 µM
- TGI [5]: 34.6 µM
- TGI [6]: > 100 µM
- TGI [7]: 69.8 µM
- TGI [8]: > 100 µM
- TGI [9]: 14.3 µM
- TGI [10]: 34.2 µM
- TGI [11]: 54.8 µM
- TGI [12]: 84 µM
- TGI [13]: > 100 µM
- TGI [14]: 61.2 µM
- TGI [15]: 5.51 µM
- TGI [16]: 35.2 µM
- TGI [17]: 8.45 µM
- TGI [18]: 4.05 µM
- TGI [19]: 28.8 µM
- TGI [20]: 62.1 µM
- TGI [21]: > 100 µM
- TGI [22]: 37 µM
- TGI [23]: 77 µM
- TGI [24]: 43 µM
- TGI [25]: 42.4 µM
- TGI [26]: 66.1 µM
- TGI [28]: > 100 µM
- TGI [29]: 82.4 µM
- TGI [30]: 40.2 µM
- TGI [31]: 47.8 µM
- TGI [32]: 5.44 µM
- TGI [33]: 91.8 µM
- TGI [35]: > 100 µM
- TGI [36]: 27.8 µM
- TGI [37]: 54.9 µM
- TGI [38]: 57.8 µM
- TGI [39]: 26.5 µM
- TGI [41]: > 100 µM
- TGI [42]: 68.1 µM
- TGI [43]: 61.9 µM
- TGI [44]: > 100 µM
- TGI [45]: > 100 µM
- TGI [46]: 41.6 µM
- TGI [47]: 21.9 µM
- TGI [48]: 50.3 µM
- TGI [49]: 47.4 µM
- TGI [50]: 28 µM
- TGI [51]: 68.7 µM
- TGI [58]: 28.5 µM
- TGI [52]: > 100 µM
- TGI [53]: 65 µM
- TGI [54]: 39.7 µM
- TGI [55]: 93.5 µM
- TGI [56]: 39.6 µM
- TGI [57]: 58.8 µM
